The target of this assay is human APJ receptor (Homo sapiens (Human), UniProt P35414). In words: biochemical. The class given is biochemical. To be noted: read-out: Activity hAPJ SPA EC50 IP. Summed up: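 Membranes from CHO cells stably expressing cloned human APJ were incubated with WGA SPA beads in 20 mM HEPES pH 7.5, 5 mM MgCl2, 0.1% BSA, 200 mM NaCl and 3 μM GDP. Reaction started with 0.2 nM [35S]GTPγS ± ligands, 90 min at RT. EC50 obtained by non-linear regression as mean of independent experiments.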

As usually defined, the EC50 is the concentration giving half of the maximal effect.

human APJ receptor, sequence (P35414 whole entry): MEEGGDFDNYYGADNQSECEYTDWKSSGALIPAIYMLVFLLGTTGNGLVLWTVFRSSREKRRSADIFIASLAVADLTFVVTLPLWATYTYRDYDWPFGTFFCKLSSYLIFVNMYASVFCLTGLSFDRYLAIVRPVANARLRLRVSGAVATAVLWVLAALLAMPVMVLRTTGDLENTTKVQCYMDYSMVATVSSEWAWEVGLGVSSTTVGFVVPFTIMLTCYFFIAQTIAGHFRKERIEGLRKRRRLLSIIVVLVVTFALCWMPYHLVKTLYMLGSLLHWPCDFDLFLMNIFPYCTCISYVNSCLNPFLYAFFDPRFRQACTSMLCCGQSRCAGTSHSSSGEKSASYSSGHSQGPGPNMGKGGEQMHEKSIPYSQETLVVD

Regarding `COCCOc1cccc(-c2nnc(NS(=O)(=O)[C@@H](C)[C@H](C)c3ncc(F)cn3)n2-c2c(OC)cccc2OC)n1` [Example 638.0, (2S,3R)-N-(4-(2,6-dimethoxyphenyl)-5-(6-(2-methoxyethoxy)pyridin-2-yl)-4H-1,2,4-triazol-3-yl)-3-(5-fluoropyrimidin-2-yl)butane-2-sulfonamide], the EC50 is 0.65 nM. Under `CNc1cccc(-c2nnc(NS(=O)(=O)[C@@H](C)[C@H](C)c3ncc(F)cn3)n2-c2c(OC)cccc2OC)n1` [Example 641.0, (2S,3R)-N-(4-(2,6-dimethoxyphenyl)-5-(6-(methylamino)pyridin-2-yl)-4H-1,2,4-triazol-3-yl)-3-(5-fluoropyrimidin-2-yl)butane-2-sulfonamide] stands 0.14 nM; under `COc1cccc(OC(F)F)c1-n1c(NS(=O)(=O)[C@@H](C)[C@H](OC)c2ncc(C)cn2)nnc1-c1cccnc1` [Example 667.0, (1R,2S,P)-N-(4-(2-(difluoromethoxy)-6-methoxyphenyl)-5-(3-pyridinyl)-4H-1,2,4-triazol-3-yl)-1-methoxy-1-(5-methyl-2-pyrimidinyl)-2-propanesulfonamide and (1R,2S,M)-N-(4-(2-(difluoromethoxy)-6-methoxyphenyl)-5-(3-pyridinyl)-4H-1,2,4-triazol-3-yl)-1-methoxy-1-(5-methyl-2-pyrimidinyl)-2-propanesulfonamide], 2.6 nM; under `COc1cccc(OC(F)F)c1-n1c(NS(=O)(=O)[C@@H](C)[C@H](OC)c2ncc(C)cn2)nnc1-c1cncc(C)c1` [Example 668.0, (1R,2S,P)-N-(4-(2-(difluoromethoxy)-6-methoxyphenyl)-5-(5-methyl-pyridinyl)-4H-1,2,4-triazol-3-yl)-1-methoxy-1-(5-methyl-2-pyrimidinyl)-2-propanesulfonamide and (1R,2S,M)-N-(4-(2-(difluoromethoxy)-6-methoxyphenyl)-5-(5-methyl-3-pyridinyl)-4H-1,2,4-triazol-3-yl)-1-methoxy-1-(5-methyl-2-pyrimidinyl)-2-propanesulfonamide], 0.76 nM. For the compound `CO[C@H](c1ncc(C)cn1)[C@H](C)S(=O)(=O)Nc1nnc(-c2cccnc2)n1-c1c(OC(F)F)cccc1OC(F)F` [Example 669.0, (1R,2S)-N-(4-(2,6-bis(difluoromethoxy)phenyl)-5-(3-pyridinyl)-4H-1,2,4-triazol-3-yl)-1-methoxy-1-(5-methyl-2-pyrimidinyl)-2-propanesulfonamide], the EC50 amounted to 2.7 nM.

For the compound `CO[C@H](c1ncc(C)cn1)[C@H](C)S(=O)(=O)Nc1nnc(-c2cncc(C)c2)n1-c1c(OC(F)F)cccc1OC(F)F` [Example 670.0, (1R,2S)-N-(4-(2,6-bis(difluoromethoxy)phenyl)-5-(5-methyl-3-pyridinyl)-4H-1,2,4-triazol-3-yl)-1-methoxy-1-(5-methyl-2-pyrimidinyl)-2-propanesulfonamide], the half-maximal effective concentration (EC50) came out at 0.55 nM. Then `CO[C@H](c1ncc(C)cn1)[C@H](C)S(=O)(=O)Nc1nnc(-c2cncc(C)c2)n1-c1c(Cl)cccc1Cl` [Example 675.0, (1R,2S)-N-(4-(2,6-dichlorophenyl)-5-(5-methyl-3-pyridinyl)-4H-1,2,4-triazol-3-yl)-1-methoxy-1-(5-methyl-2-pyrimidinyl)-2-propanesulfonamide 2,2,2-trifluoroacetate], with 2.6 nM; and `COc1cccc(-c2nnc(NS(=O)(=O)CCc3ncc(F)cn3)n2-c2c(OC)cccc2OC)n1` [Example 676.0, N-(4-(2,6-dimethoxyphenyl)-5-(6-methoxy-2-pyridinyl)-4H-1,2,4-triazol-3-yl)-2-(5-fluoro-2-pyrimidinyl)ethanesulfonamide 2,2,2-trifluoroacetate], with 6 nM. Under `CO[C@H](c1ncc(C)cn1)[C@H](C)S(=O)(=O)Nc1nnc(-c2cncc(C)c2)n1-c1c(F)cccc1F` [Example 677.0, (1R,2S)-N-(4-(2,6-difluorophenyl)-5-(5-methylpyridin-3-yl)-4H-1,2,4-triazol-3-yl)-1-methoxy-1-(5-methylpyrimidin-2-yl)propane-2-sulfonamide 2,2,2-trifluoroacetate] stands 7.2 nM; under `COc1cnc([C@@H](C)[C@H](C)S(=O)(=O)Nc2nnc(-c3cncc(C)c3)n2-c2c(OC)cccc2OC)nc1` [Example 682.0, (2S,3R)-N-(4-(2,6-dimethoxyphenyl)-5-(5-methyl-3-pyridinyl)-4H-1,2,4-triazol-3-yl)-3-(5-methoxy-2-pyrimidinyl)-2-butanesulfonamide 2,2,2-trifluoroacetate], 0.2 nM.

On to `COc1cccc(-c2nnc(NS(=O)(=O)[C@@H](C)[C@H](OC)c3ncc(C)cn3)n2-c2c(F)cccc2F)n1` [Example 684.0, (1R,2S)-N-(4-(2,6-difluorophenyl)-5-(6-methoxy-2-pyridinyl)-4H-1,2,4-triazol-3-yl)-1-methoxy-1-(5-methyl-2-pyrimidinyl)-2-propanesulfonamide], for which the EC50 came to 0.81 nM.

In the case of `COc1cnc([C@@H](OC)[C@@H](C)S(=O)(=O)Nc2nnc(-c3cncc(C)c3)n2-c2c(OC)cccc2OC)nc1` [Example 687.0, (1R,2R)-N-(4-(2,6-dimethoxyphenyl)-5-(5-methyl-3-pyridinyl)-4H-1,2,4-triazol-3-yl)-1-methoxy-1-(5-methoxy-2-pyrimidinyl)-2-propanesulfonamide 2,2,2-trifluoroacetate], the EC50 stood at 4.7 nM. `COc1ncnc(OC)c1-n1c(NS(=O)(=O)[C@@H](C)[C@H](C)c2ncc(Cl)cn2)nnc1-c1cccnc1` [Example 709.0, (2S,3R)-3-(5-chloro-2-pyrimidinyl)-N-(4-(4,6-dimethoxy-5-pyrimidinyl)-5-(3-pyridinyl)-4H-1,2,4-triazol-3-yl)-2-butanesulfonamide]: the EC50 was 0.71 nM. In the case of `COc1cccc(-c2nnc(NS(=O)(=O)[C@@H](C)[C@H](C)c3ncc(Cl)cn3)n2-c2c(OC)ncnc2OC)n1` [Example 710.0, (2S,3R)-3-(5-chloro-2-pyrimidinyl)-N-(4-(4,6-dimethoxy-5-pyrimidinyl)-5-(6-methoxy-2-pyridinyl)-4H-1,2,4-triazol-3-yl)-2-butanesulfonamide], the EC50 was 0.21 nM. Consider `COc1cccc(OC)c1-n1c(NS(=O)(=O)[C@@H](C)[C@@H](OC(C)C)c2ncc(C)cn2)nnc1-c1cccc(C)n1` [Example 738.0, (1S,2S)-N-(4-(2,6-dimethoxyphenyl)-5-(6-methylpyridin-2-yl)-4H-1,2,4-triazol-3-yl)-1-isopropoxy-1-(5-methylpyrimidin-2-yl)propane-2-sulfonamide], for which the EC50 amounted to 0.1 nM. Take `COc1cccc(OC)c1-n1c(NS(=O)(=O)[C@@H](C)[C@H](OC)c2ncc(C3=CCOCC3)cn2)nnc1-c1cncc(C)c1` [Example 749.0, (1R,2S)-1-(5-(3,6-dihydro-2H-pyran-4-yl)pyrimidin-2-yl)-N-(4-(2,6-dimethoxyphenyl)-5-(5-methylpyridin-3-yl)-4H-1,2,4-triazol-3-yl)-1-methoxypropane-2-sulfonamide]: the EC50 came out at 15 nM. With `COc1cccc(OC)c1-n1c(NS(=O)(=O)[C@@H](C)[C@H](OC)c2ncc(-c3cccnc3)cn2)nnc1-c1cncc(C)c1` [Example 752.0, (1R,2S)—N-(4-(2,6-dimethoxyphenyl)-5-(5-methylpyridin-3-yl)-4H-1,2,4-triazol-3-yl)-1-methoxy-1-(5-(pyridin-3-yl)pyrimidin-2-yl)propane-2-sulfonamide], the EC50 is 3.6 nM. Under `Cc1cnc([C@@H](C)[C@H](C)S(=O)(=O)Nc2nnc(-c3cncc(C)c3)n2-c2c(OC(F)F)cccc2OC(F)F)nc1` [Example 763.0, (2S,3R)—N-(4-(2,6-bis(difluoromethoxy)phenyl)-5-(5-methylpyridin-3-yl)-4H-1,2,4-triazol-3-yl)-3-(5-methylpyrimidin-2-yl)butane-2-sulfonamide] stands 0.71 nM. Then `COc1ncnc(OC)c1-n1c(NS(=O)(=O)[C@@H](C)[C@H](C)c2cnc(C)cn2)nnc1-c1ccccn1` [Example 773.0, (2S,3R)-N-(4-(4,6-dimethoxy-5-pyrimidinyl)-5-(2-pyridinyl)-4H-1,2,4-triazol-3-yl)-3-(5-methyl-2-pyrazinyl)-2-butanesulfonamide], with 14 nM; and `COc1cccc(OC)c1-n1c(NS(=O)(=O)[C@@H](C)[C@H](C)c2cnc(C)cn2)nnc1-c1ccccn1` [Example 774.0, (2S,3R)-N-(4-(2,6-dimethoxyphenyl)-5-(2-pyridinyl)-4H-1,2,4-triazol-3-yl)-3-(5-methyl-2-pyrazinyl)-2-butanesulfonamide], with 8.2 nM. Then `COc1cccc(OC)c1-n1c(NS(=O)(=O)[C@@H](C)[C@H](C)c2ncc(C)cn2)nnc1-c1ccccn1` [Example 775.0, (2S,3R)-N-(4-(2,6-dimethoxyphenyl)-5-(2-pyridinyl)-4H-1,2,4-triazol-3-yl)-3-(5-methyl-2-pyrimidinyl)-2-butanesulfonamide], with 2.1 nM. `COc1ncnc(OC)c1-n1c(NS(=O)(=O)[C@@H](C)[C@H](C)c2ncc(C)cn2)nnc1-c1ccccn1` [Example 776.0, (2S,3R)-N-(4-(4,6-dimethoxy-5-pyrimidinyl)-5-(2-pyridinyl)-4H-1,2,4-triazol-3-yl)-3-(5-methyl-2-pyrimidinyl)-2-butanesulfonamide]: the EC50 stood at 3.9 nM. Take `COc1ncnc(OC)c1-n1c(NS(=O)(=O)[C@@H](C)[C@@H](OC(C)C)c2ncc(C)cn2)nnc1-c1ccccn1` [Example 777.0, (1S,2S)-N-(4-(4,6-dimethoxy-5-pyrimidinyl)-5-(2-pyridinyl)-4H-1,2,4-triazol-3-yl)-1-(1-methylethoxy)-1-(5-methyl-2-pyrimidinyl)-2-propanesulfonamide]: the 50% effective concentration (EC50) was determined as 2.2 nM. With `COc1cccc(OC)c1-n1c(NS(=O)(=O)[C@@H](C)[C@@H](OC(C)C)c2ncc(C)cn2)nnc1-c1ccccn1` [Example 778.0, (1S,2S)-N-(4-(2,6-dimethoxyphenyl)-5-(2-pyridinyl)-4H-1,2,4-triazol-3-yl)-1-(1-methylethoxy)-1-(5-methyl-2-pyrimidinyl)-2-propanesulfonamide], the half-maximal effective concentration (EC50) turned out to be 0.77 nM.

The record behind these values is patent US10058550B2, “Methods of treating heart failure” (priority 2015, dated 2018).
